The values below come from ChEMBL document CHEMBL4393685, “Synthesis and evaluation of pyrimidoindole analogs in umbilical cord blood ex vivo expansion” (Eur J Med Chem, 2019).

Format in all cases: functional
A short description of assay [1]: Stimulation of ex vivo expansion of human CD34+ cells assessed as CD34+CD38- level at 0.01 to 1 uM incubated for 7 days supplemented with 50% fresh medium containing cytokines every other day by flow cytometry (reference value: 19.10 +/- 0.35%).
Assay [2] in a line: Stimulation of ex vivo expansion of human CD34+ cells assessed as CD34+/CD38- level at 0.01 to 1 uM incubated for 7 days supplemented with 50% fresh medium containing cytokines every other day by flow cytometry relative to control. Background: Flow cytometry measures light scatter and fluorescence of single cells or particles in a stream.
Assay [3] in a line: Stimulation of ex vivo expansion of human CD34+ cells assessed as CD34+CD38- level incubated for 7 days supplemented with 50% fresh medium containing cytokines every other day by flow cytometry. Conditions: for pEC50: Homo sapiens, 168 h, read-out: EC50.
The nature of assay [4]: Ex vivo expansion of human CD34+ cells assessed as increase in CD34+ cell level after 5 to 7 days by […].
Assay [5] is described as follows: Stimulation of ex vivo expansion of human CD34+ cells assessed as CD34postive phenotypic levels after 7 days by carboxyfluorescein succinimidyl ester dye based assay.

The term pEC50 denotes the EC50 on a negative log10 scale, so that one unit is a factor of ten.

pEC50: −log10 of the molar value.

Turning to `Cn1nnc(-c2ccc3[nH]c4nc(Cc5ccccc5)nc(NCCO)c4c3c2)n1`, in assay [1], the Activity was 18.99%. Further, the “fold change (FC)” value in assay [2] is listed as 0.99. The EC50 entry in assay [3] is “Nd(Toxic)”.

`COc1ccc(CCNc2nc(Cc3ccccc3)nc3[nH]c4ccc(-c5nnn(C)n5)cc4c23)cc1OC`: in assay [1], the Activity was 23.63%. Moreover, the “fold change (FC)” value in assay [2] is 1.24. In addition, the pEC50 in assay [3] was 7.19.

For `Cn1nnc(-c2ccc3[nH]c4nc(Cc5ccccc5)nc(NCCNC(=O)OC(C)(C)C)c4c3c2)n1`, the Activity in assay [1] is recorded as 16.11%. For the same compound, the “fold change (FC)” value in assay [2] is 0.84. Moreover, the EC50 result in assay [3] is “Nd(Toxic)”.

Regarding `Cn1nnc(-c2ccc3[nH]c4nc(Cc5ccccc5)nc(NCCN(Cc5ccccn5)Cc5ccccn5)c4c3c2)n1`, the Activity in assay [1] amounted to 24.23%. Also, in assay [2], the “fold change (FC)” value is 1.27. Also, the pEC50 in assay [3] is 7.58.

As to `COc1ccc(Nc2nc(Cc3ccccc3)nc3[nH]c4ccc(-c5nnn(C)n5)cc4c23)cc1`, the Activity in assay [1] turned out to be 19.34%. Also, the “fold change (FC)” value in assay [2] is 1.01. Moreover, the EC50 result in assay [3] was “Nd(Toxic)”.

`Cn1nnc(-c2ccc3c(c2)[nH]c2nc(Cc4ccccc4)nc(Nc4ccc(F)c(Cl)c4)c23)n1`: the Activity in assay [1] turned out to be 15.79%. Moreover, the “fold change (FC)” value in assay [2] is given as 0.83. Moreover, the EC50 entry in assay [3] was “Nd(Toxic)”.

With `C#Cc1cccc(Nc2nc(Cc3ccccc3)nc3[nH]c4ccc(-c5nnn(C)n5)cc4c23)c1`, the Activity in assay [1] is 25.99%. Further, the “fold change (FC)” value in assay [2] was 1.36. For the same compound, the pEC50 in assay [3] was 7.25.

As to `Cn1nnc(-c2ccc3[nH]c4nc(Cc5ccccc5)nc(Nc5ccccc5)c4c3c2)n1`, the Activity in assay [1] stood at 18.02%. The “fold change (FC)” value in assay [2] stood at 0.94. In addition, the EC50 entry in assay [3] is reported as “Nd(Toxic)”.

Consider `CC(O)CNc1nc(Cc2ccccc2)nc2[nH]c3ccc(-c4nnn(C)n4)cc3c12` (stereo not given), for which, in assay [1], the Activity was 31.2%. In addition, the “fold change (FC)” value in assay [2] is given as 1.63. For the same compound, the pEC50 in assay [3] was 6.78.

On to `Cn1nnc(-c2ccc3c(c2)[nH]c2nc(Cc4ccccc4)nc(NC4CCOCC4)c23)n1`, for which the Activity in assay [1] amounted to 30.87%. Further, the “fold change (FC)” value in assay [2] was 1.62. For the same compound, the pEC50 in assay [3] was 6.01.

Consider `Cn1nnc(-c2ccc3[nH]c4nc(Cc5ccccc5)nc(Nc5cccc(Br)c5)c4c3c2)n1`, for which the Activity in assay [1] stood at 22.63%. Further, the “fold change (FC)” value in assay [2] worked out at 1.19. Besides, the EC50 entry in assay [3] is “Nd(Toxic)”.

In the case of `Cn1nnc(-c2ccc3c(c2)[nH]c2nc(Cc4ccccc4)nc(N[C@H]4CC[C@H](O)CC4)c23)n1`, the Activity in assay [1] is given as 50.15%. The “fold change (FC)” value in assay [2] is listed as 2.63. The pEC50 in assay [3] was 6.32.

Turning to `Cn1nnc(-c2ccc3[nH]c4nc(Cc5ccccc5)nc(N5CCC(CO)CC5)c4c3c2)n1`, the Activity in assay [1] is reported as 20.29%. For the same compound, the “fold change (FC)” value in assay [2] is reported as 1.06. The pEC50 in assay [3] was 6.45.

As for `Cc1cc(Cl)ccc1Nc1nc(Cc2ccccc2)nc2[nH]c3ccc(-c4nnn(C)n4)cc3c12`, the Activity in assay [1] is recorded as 30.36%. Also, the “fold change (FC)” value in assay [2] was found to be 1.59. Further, in assay [3], the pEC50 was 7.72.

Take `Cn1nnc(-c2ccc3[nH]c4nc(Cc5ccccc5)nc(Nc5ccc(N)cc5)c4c3c2)n1`: the Activity in assay [1] is given as 22.01%. Further, the “fold change (FC)” value in assay [2] was determined as 1.15. Moreover, the EC50 entry in assay [3] was “Nd(Toxic)”.

For `Cc1ccc(Sc2nc(Cc3ccccc3)nc3[nH]c4ccc(-c5nnn(C)n5)cc4c23)cc1`, the Activity in assay [1] is reported as 25.53%. The “fold change (FC)” value in assay [2] was found to be 1.34. Further, in assay [3], the EC50 entry is “Nd(Toxic)”.

Consider `Cn1nnc(-c2ccc3[nH]c4nc(Cc5ccccc5)nc(N5CCOCC5)c4c3c2)n1`, for which the Activity in assay [1] came to 17.32%. Besides, in assay [2], the “fold change (FC)” value amounted to 0.91. Also, in assay [3], the pEC50 is 6.75.

On to `CN(C)c1nc(Cc2ccccc2)nc2[nH]c3cc(-c4nnn(C)n4)ccc3c12`, for which, in assay [1], the Activity is recorded as 15.91%. Moreover, the “fold change (FC)” value in assay [2] stood at 0.83. For the same compound, the EC50 result in assay [3] is recorded as “Nd(Toxic)”.

In the case of `COc1cc2c(cc1OC)CN(CCNc1nc(Cc3ccccc3)nc3[nH]c4ccc(-c5nnn(C)n5)cc4c13)CC2`, the Activity in assay [1] is on record as 21.93%. Moreover, the “fold change (FC)” value in assay [2] is 1.27. Moreover, the pEC50 in assay [3] was 7.52.

Regarding `CNC(=O)c1ccc(Nc2nc(Cc3ccccc3)nc3[nH]c4ccc(-c5nnn(C)n5)cc4c23)cc1`, in assay [1], the Activity came out at 21.83%. Moreover, in assay [2], the “fold change (FC)” value amounted to 1.14. Further, in assay [3], the EC50 result is “Nd(Toxic)”.

As to `CC(C)n1cnc2c(NCCc3ccc(O)cc3)nc(-c3csc4ccccc34)nc21`, the pEC50 in assay [4] was 6.92. Moreover, in assay [5], the Activity amounted to 61%.

As to `Cn1nnc(-c2ccc3[nH]c4nc(Cc5ccccc5)nc(NCCc5c[nH]c6ccccc56)c4c3c2)n1`, the Activity in assay [1] turned out to be 21.72%. Further, the “fold change (FC)” value in assay [2] came out at 1.14. Also, in assay [3], the pEC50 was 7.56.

Turning to `COc1ccc(CCNc2nc(Cc3ccccc3)nc3[nH]c4cc(-c5nnn(C)n5)ccc4c23)cc1OC`, the Activity in assay [1] is given as 37.07%. The “fold change (FC)” value in assay [2] amounted to 1.94. For the same compound, in assay [3], the EC50 result was “Nd(Toxic)”.

Take `Cn1nnc(-c2ccc3[nH]c4nc(Cc5ccccc5)nc(NCc5ccccc5)c4c3c2)n1`: the Activity in assay [1] came to 23.92%. The “fold change (FC)” value in assay [2] is 1.25. Also, in assay [3], the EC50 entry was “Nd(Toxic)”.

`Cn1nnc(-c2ccc3[nH]c4nc(Cc5ccccc5)nc(N[C@H]5CC[C@H](O)CC5)c4c3c2)n1`: in assay [1], the Activity worked out at 17.9%. For the same compound, the “fold change (FC)” value in assay [2] was 0.94. For the same compound, in assay [3], the EC50 entry was “Nd(Toxic)”.

Turning to `Cn1nnc(-c2ccc3[nH]c4nc(Cc5ccccc5)nc(Nc5ccc(F)c(Cl)c5)c4c3c2)n1`, the Activity in assay [1] was 20.65%. Also, in assay [2], the “fold change (FC)” value is reported as 1.08. In assay [3], the EC50 result is on record as “Nd(Toxic)”.

Regarding `COc1ccc(CCNc2nc(Cc3ccccc3)nc3[nH]c4ccc(-c5nnn(C)n5)cc4c23)cc1`, the Activity in assay [1] turned out to be 21.96%. In assay [2], the “fold change (FC)” value is recorded as 1.15. Moreover, the EC50 result in assay [3] is given as “Nd(Toxic)”.

For the compound `Cn1nnc(-c2ccc3[nH]c4nc(Cc5ccccc5)nc(N5CCCC(CO)C5)c4c3c2)n1` (stereo not given), in assay [1], the Activity was found to be 22.2%. The “fold change (FC)” value in assay [2] was 1.16. For the same compound, in assay [3], the pEC50 was 7.23.

As to `Cn1nnc(-c2ccc3[nH]c4nc(Cc5ccccc5)nc(N[C@H]5CC[C@H](N)CC5)c4c3c2)n1`, in assay [1], the Activity was found to be 18.72%. In assay [2], the “fold change (FC)” value is 0.98. In addition, in assay [3], the EC50 result is reported as “Nd(Toxic)”.

`Cc1cc(Cl)ccc1Nc1nc(Cc2ccccc2)nc2[nH]c3cc(-c4nnn(C)n4)ccc3c12`: the Activity in assay [1] came out at 15.37%. The “fold change (FC)” value in assay [2] was found to be 0.8. Further, the EC50 result in assay [3] was “Nd(Toxic)”.

As to `COc1ccc(CCNc2nc(Cc3ccccc3)nc3[nH]c4cc(-c5nnn(C)n5)ccc4c23)cc1`, the Activity in assay [1] came out at 14.15%. In addition, the “fold change (FC)” value in assay [2] is listed as 0.74. For the same compound, the EC50 entry in assay [3] is on record as “Nd(Toxic)”.

As for `Cn1nnc(-c2ccc3[nH]c4nc(Cc5ccccc5)nc(NCCNC(=O)c5ccc6ccccc6n5)c4c3c2)n1`, in assay [1], the Activity is reported as 20.89%. Moreover, the “fold change (FC)” value in assay [2] is listed as 1.09. In addition, the EC50 result in assay [3] is recorded as “Nd(Toxic)”.

Take `Cn1nnc(-c2ccc3c(c2)[nH]c2nc(Cc4ccccc4)nc(NCCc4c[nH]c5ccccc45)c23)n1`: in assay [1], the Activity came out at 19.73%. Further, in assay [2], the “fold change (FC)” value is listed as 1.03. Moreover, in assay [3], the EC50 result is listed as “Nd(Toxic)”.

On to `Cn1nnc(-c2ccc3c(c2)[nH]c2nc(Cc4ccccc4)nc(NCCc4ccc(O)cc4)c23)n1`, for which the Activity in assay [1] was determined as 18.2%. Besides, the “fold change (FC)” value in assay [2] was found to be 0.95. Besides, the EC50 entry in assay [3] is on record as “Nd(Toxic)”.

`C#Cc1cccc(Nc2nc(Cc3ccccc3)nc3[nH]c4cc(-c5nnn(C)n5)ccc4c23)c1`: the Activity in assay [1] came out at 16.98%. Further, the “fold change (FC)” value in assay [2] stood at 0.89. For the same compound, the EC50 entry in assay [3] is given as “Nd(Toxic)”.

`Cn1nnc(-c2ccc3[nH]c4nc(Cc5ccccc5)nc(N5CCNCC5)c4c3c2)n1`: in assay [1], the Activity came to 24.69%. For the same compound, in assay [2], the “fold change (FC)” value is 1.29. Moreover, in assay [3], the pEC50 was 6.80.

`Cn1nnc(-c2ccc3[nH]c4nc(Cc5ccccc5)nc(NCCc5ccc(O)cc5)c4c3c2)n1`: the Activity in assay [1] was 20.65%. Moreover, in assay [2], the “fold change (FC)” value stood at 1.08. Further, in assay [3], the EC50 entry is reported as “Nd(Toxic)”.
